The nature of data set [1]: Lipophilicity, logP of the compound. The class given is physicochemical. As to conditions: octanol/water.
Data set [2] relates to HepG2. Nature of the data set: Antitumor activity against human HepG2 cells assessed as inhibition of cell viability by MTT assay. The class given is functional, cell-based. On the technique in general: Formazan colour is commonly taken as a measure of viable cells.
Data set [3] relates to MCF7. Nature of the data set: Antitumor activity against human MCF7 cells assessed as inhibition of cell viability by MTT assay. The class given is functional, cell-based.
In data set [4] the test system is HCT-116. Nature of the data set: Antitumor activity against human HCT-116 cells assessed as inhibition of cell viability by MTT assay. The class given is functional, cell-based.
Data set [5] concerns the target Epidermal growth factor receptor (Homo sapiens, UniProt P00533). Nature of the data set: Inhibition of EGFR-TK (unknown origin) relative to control.
In data set [6] the target is DNA topoisomerase 2-beta (Homo sapiens, UniProt Q02880). Nature of the data set: Inhibition of Topoisomerase II beta (unknown origin) relative to control.
Chain of DNA topoisomerase 2-beta (Q02880 whole entry): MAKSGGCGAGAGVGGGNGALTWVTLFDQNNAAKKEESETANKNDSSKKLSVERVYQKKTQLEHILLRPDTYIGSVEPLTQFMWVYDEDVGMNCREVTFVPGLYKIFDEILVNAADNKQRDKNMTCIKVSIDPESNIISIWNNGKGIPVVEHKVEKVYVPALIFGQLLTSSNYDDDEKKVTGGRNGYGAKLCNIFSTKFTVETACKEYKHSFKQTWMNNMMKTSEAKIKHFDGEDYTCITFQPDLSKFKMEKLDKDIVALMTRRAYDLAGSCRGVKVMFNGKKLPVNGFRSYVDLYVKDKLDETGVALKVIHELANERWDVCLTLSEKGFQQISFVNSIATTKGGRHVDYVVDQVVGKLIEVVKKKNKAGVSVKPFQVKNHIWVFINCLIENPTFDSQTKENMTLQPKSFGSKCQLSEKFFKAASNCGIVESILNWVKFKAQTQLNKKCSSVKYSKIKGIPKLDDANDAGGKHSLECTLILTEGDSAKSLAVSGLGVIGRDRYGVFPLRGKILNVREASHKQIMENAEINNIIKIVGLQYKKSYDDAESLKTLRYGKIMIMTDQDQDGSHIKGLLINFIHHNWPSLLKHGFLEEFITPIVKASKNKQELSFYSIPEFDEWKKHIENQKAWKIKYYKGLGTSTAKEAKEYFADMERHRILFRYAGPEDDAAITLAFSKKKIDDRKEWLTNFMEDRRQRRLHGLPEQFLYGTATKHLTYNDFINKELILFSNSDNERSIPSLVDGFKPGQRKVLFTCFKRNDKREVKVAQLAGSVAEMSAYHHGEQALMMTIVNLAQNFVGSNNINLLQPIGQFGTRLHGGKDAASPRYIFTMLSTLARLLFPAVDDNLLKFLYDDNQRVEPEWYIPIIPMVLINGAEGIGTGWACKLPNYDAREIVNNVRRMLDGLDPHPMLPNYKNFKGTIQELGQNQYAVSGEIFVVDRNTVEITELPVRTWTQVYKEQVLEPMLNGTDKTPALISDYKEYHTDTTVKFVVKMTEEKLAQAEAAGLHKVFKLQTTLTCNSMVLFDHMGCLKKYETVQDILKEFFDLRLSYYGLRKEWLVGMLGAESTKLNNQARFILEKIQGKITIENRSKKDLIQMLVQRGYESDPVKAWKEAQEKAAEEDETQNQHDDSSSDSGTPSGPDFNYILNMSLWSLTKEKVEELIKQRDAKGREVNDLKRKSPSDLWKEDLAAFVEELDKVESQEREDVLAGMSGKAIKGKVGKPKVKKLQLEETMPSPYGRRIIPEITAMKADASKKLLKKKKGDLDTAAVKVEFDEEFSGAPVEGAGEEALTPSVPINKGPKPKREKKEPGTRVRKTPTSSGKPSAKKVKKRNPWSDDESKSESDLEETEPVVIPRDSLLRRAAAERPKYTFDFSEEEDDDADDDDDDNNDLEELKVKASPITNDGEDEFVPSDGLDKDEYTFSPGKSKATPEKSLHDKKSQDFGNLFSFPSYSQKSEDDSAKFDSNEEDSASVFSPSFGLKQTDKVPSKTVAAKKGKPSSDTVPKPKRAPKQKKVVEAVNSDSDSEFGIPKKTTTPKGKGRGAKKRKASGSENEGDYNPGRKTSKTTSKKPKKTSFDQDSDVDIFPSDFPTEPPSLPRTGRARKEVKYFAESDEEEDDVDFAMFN

Structures are written as SMILES. Where only a bound is given, the exact number is not on record here.

Chain of Epidermal growth factor receptor (P00533 whole entry): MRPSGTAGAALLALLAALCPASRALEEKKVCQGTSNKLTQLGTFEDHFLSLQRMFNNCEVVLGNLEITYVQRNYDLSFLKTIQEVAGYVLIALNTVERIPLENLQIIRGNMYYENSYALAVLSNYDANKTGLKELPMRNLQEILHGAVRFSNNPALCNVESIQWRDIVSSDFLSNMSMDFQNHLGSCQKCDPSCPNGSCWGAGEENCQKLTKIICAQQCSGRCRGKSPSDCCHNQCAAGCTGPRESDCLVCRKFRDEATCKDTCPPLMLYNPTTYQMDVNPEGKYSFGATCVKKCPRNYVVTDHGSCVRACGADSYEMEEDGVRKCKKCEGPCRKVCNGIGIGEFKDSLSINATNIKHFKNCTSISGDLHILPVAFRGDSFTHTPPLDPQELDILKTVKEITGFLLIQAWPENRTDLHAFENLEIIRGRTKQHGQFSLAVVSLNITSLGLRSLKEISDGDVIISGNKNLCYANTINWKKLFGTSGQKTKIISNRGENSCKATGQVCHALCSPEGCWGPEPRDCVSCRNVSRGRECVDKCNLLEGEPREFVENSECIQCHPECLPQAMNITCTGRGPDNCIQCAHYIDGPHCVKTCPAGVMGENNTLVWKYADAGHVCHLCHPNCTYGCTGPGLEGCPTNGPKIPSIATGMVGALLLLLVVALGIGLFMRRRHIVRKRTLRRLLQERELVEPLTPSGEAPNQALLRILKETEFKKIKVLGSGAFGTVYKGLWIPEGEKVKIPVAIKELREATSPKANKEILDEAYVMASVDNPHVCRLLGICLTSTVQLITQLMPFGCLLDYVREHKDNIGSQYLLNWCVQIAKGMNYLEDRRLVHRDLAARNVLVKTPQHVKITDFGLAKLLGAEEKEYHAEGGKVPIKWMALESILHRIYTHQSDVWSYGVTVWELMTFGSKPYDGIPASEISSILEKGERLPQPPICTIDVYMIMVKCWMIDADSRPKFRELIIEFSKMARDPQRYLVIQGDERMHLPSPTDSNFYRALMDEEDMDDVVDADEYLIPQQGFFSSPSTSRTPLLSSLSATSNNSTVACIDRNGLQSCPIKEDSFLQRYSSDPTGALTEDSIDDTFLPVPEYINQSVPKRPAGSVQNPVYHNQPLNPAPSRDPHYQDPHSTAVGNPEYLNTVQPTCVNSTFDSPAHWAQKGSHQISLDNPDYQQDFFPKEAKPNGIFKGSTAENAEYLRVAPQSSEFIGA

What is called logP is the decadic logarithm of the partition coefficient of the neutral form, usually between octanol and water. The IC50 is the concentration at which inhibition is half-maximal. In the case of `Cc1cc(NC(=O)CCN2CCN(c3ccccc3)CC2)no1`, the logP in data set [1] amounted to 1.84. Besides, the IC50 in data set [2] came to 51.8 µM; in data set [3], 29.1 µM; in data set [4], 46.1 µM.

For the compound `CC(C)(C)c1cc(NC2=NC(=O)/C(=C\c3c(F)cccc3Cl)S2)no1`, the figures for the IC50 in data set [2], in data set [3] and in data set [4] were 91.6 µM, 70.6 µM and over 100 µM, respectively.

On to `CC(C)(C)c1cc(NC2=NC(=O)CS2)no1`, for which the logP in data set [1] came to 1.97. The IC50 in data set [2] was found to be 18.3 µM; in data set [5], 0.15 µM; in data set [3], 9.42 µM; in data set [4], 11.5 µM.

`Cc1cc(NC(=O)CCN2CCN(C)CC2)no1` yielded a logP in data set [1] of 0.14. For the same compound, the IC50 in data set [2] was 56.7 µM; in data set [3], 44.2 µM; in data set [4], 75.8 µM.

Consider `Cc1cc(NC2=NC(=O)/C(=C\c3ccco3)S2)no1`, for which the IC50 in data set [2] was 41.6 µM; in data set [3], 30.3 µM; in data set [4] it was 58.3 µM.

The compound `CC(C)(C)c1cc(NC2=NC(=O)/C(=C\c3ccc(-c4ccccc4)cc3)S2)no1` came in with a logP in data set [1] of 6.5. The results for the IC50 in data set [2], in data set [3] and in data set [4] were 84.7 µM, 59.3 µM and 86.4 µM, respectively.

In data set [1], `Cc1cc(NC(=O)CN2CCN(C)CC2)no1` showed a logP of 0.23. Further, the results for the IC50 in data set [2], in data set [3] and in data set [4] were 63.5 µM, 65.1 µM and 88.2 µM, respectively.

On to `CCN1CCN(CC(=O)Nc2cc(C)on2)CC1`, for which the lipophilicity (logP) in data set [1] is 0.61. For the same compound, the IC50 came out at 19.5 µM in data set [2], 0.081 µM in data set [5], 12.6 µM in data set [3] and 17.6 µM in data set [4].

Consider `CCN1CCN(CCC(=O)Nc2cc(C(C)(C)C)on2)CC1`, for which the lipophilicity (logP) in data set [1] was 2.24. The half-inhibitory concentration (IC50) is 76.4 µM in data set [2], 61.3 µM in data set [3] and 91.2 µM in data set [4].

As for `CC(C)(C)c1cc(NC(=O)CCN2CCOCC2)no1`, the IC50 is 93.5 µM in data set [2], 78.2 µM in data set [3] and over 100 µM in data set [4].

In data set [1], `CC(C)(C)c1cc(NC(=O)CN2CCN(Cc3ccccc3)CC2)no1` came in with a lipophilicity (logP) of 3.36. Also, the half-inhibitory concentration (IC50) in data set [2] worked out at 57.1 µM; in data set [3], 47.9 µM; in data set [4], 78.4 µM.

As to `Cc1cc(N2C(=O)c3c(Br)c(Br)c(Br)c(Br)c3C2=O)no1`, the IC50 in data set [2], in data set [3] and in data set [4] was over 100 µM each time.

As for `Cc1cc(NC(=O)CCN2CCN(Cc3ccccc3)CC2)no1`, in data set [1], the logP stood at 1.54. Moreover, the IC50 in data set [2] was 89.4 µM; in data set [3] it was 92.2 µM; in data set [4], over 100 µM.

`Cc1ccc(/C=C2/SC(Nc3cc(C(C)(C)C)on3)=NC2=O)cc1` came in with a logP in data set [1] of 5.15. Further, the IC50 in data set [2] amounted to 55.4 µM; in data set [3] it was 39.6 µM; in data set [4], 51.3 µM.

For the compound `CC(C)(C)c1cc(NC2=NC(=O)/C(=C\c3ccc(Br)s3)S2)no1`, the 50% inhibitory concentration (IC50) in data set [2], in data set [3] and in data set [4] was over 100 µM each time.

As to `Cc1cc(NC2=NC(=O)/C(=C\c3c(F)cccc3Cl)S2)no1`, the IC50 is 31.1 µM in data set [2], 21.4 µM in data set [3] and 31.8 µM in data set [4].

For the compound `COc1cccc2c1C(=O)c1c(O)c3c(c(O)c1C2=O)C[C@@](O)(C(=O)CO)C[C@@H]3O[C@H]1C[C@H](N)[C@H](O)[C@H](C)O1` [DOXORUBICIN], in data set [6], the IC50 worked out at 0.727 µM.

The compound `CC(C)(C)c1cc(NC2=NC(=O)/C(=C\c3ccc(Br)cc3)S2)no1` yielded a logP in data set [1] of 5.51. In addition, the half-inhibitory concentration (IC50) is 48.2 µM in data set [2], 36.1 µM in data set [3] and 64.4 µM in data set [4].

As for `CC(C)(C)c1cc(NC(=O)CCCl)no1`, the results for the 50% inhibitory concentration (IC50) in data set [2], in data set [3] and in data set [4] were 74.8 µM, 59.8 µM and 92.6 µM, respectively.

In data set [1], `CCN1CCN(CC(=O)Nc2cc(C(C)(C)C)on2)CC1` had a logP of 2.33. For the same compound, the half-maximal inhibitory concentration (IC50) is 39.1 µM in data set [2], 27.1 µM in data set [3] and 38.4 µM in data set [4].

Turning to `CCN1CCN(CCC(=O)Nc2cc(C)on2)CC1`, the logP in data set [1] turned out to be 0.51. Besides, the IC50 in data set [2] is 52.2 µM; in data set [3], 45.7 µM; in data set [4], 69 µM.

The compound `Cc1cc(NC2=NC(=O)CS2)no1` registered a logP in data set [1] of 0.24. For the same compound, the IC50 amounted to 23.8 µM in data set [2], 0.081 µM in data set [5], 14.8 µM in data set [3] and 20.8 µM in data set [4].

Take `CC(C)(C)c1cc(NC(=O)CCl)no1`: the log partition coefficient (logP) in data set [1] was 2.27. Besides, the 50% inhibitory concentration (IC50) in data set [2] is 9.74 µM; in data set [5], 0.124 µM; in data set [3], 7.15 µM; in data set [4], 9.96 µM.

With `Cc1cc(NC2=NC(=O)/C(=C\c3ccc(Br)s3)S2)no1`, the half-maximal inhibitory concentration (IC50) in data set [2] is 32.8 µM; in data set [3], 24.2 µM; in data set [4], 36.6 µM.

As for `CC(C)(C)c1cc(N2C(=O)c3c(Cl)c(Cl)c(Cl)c(Cl)c3C2=O)no1`, the half-inhibitory concentration (IC50) in data set [2] is over 100 µM; in data set [3] it was 88.3 µM; in data set [4], over 100 µM.

`CN1CCN(CC(=O)Nc2cc(C(C)(C)C)on2)CC1`: in data set [1], the logP worked out at 1.96. The IC50 amounted to 65.3 µM in data set [2], 56.2 µM in data set [3] and 80.1 µM in data set [4].

`Cc1cc(NC2=NC(=O)/C(=C\c3ccc(-c4ccccc4)cc3)S2)no1` gave a logP in data set [1] of 4.78. For the same compound, the IC50 in data set [2], in data set [3] and in data set [4] was over 100 µM each time.

With `Cc1cc(NC(=O)CCCl)no1`, the half-inhibitory concentration (IC50) in data set [2] was 62 µM; in data set [3], 48.9 µM; in data set [4], 75.3 µM.

In data set [1], `Cc1cc(NC(=O)CCl)no1` showed a log partition coefficient (logP) of 0.55. Besides, the IC50 in data set [2] was found to be 11.1 µM; in data set [5], 0.106 µM; in data set [3] it was 10.4 µM; in data set [4] it was 13.1 µM.

In data set [1], `CC(C)(C)c1cc(NC(=O)CN2CCN(c3ccccc3)CC2)no1` displayed a logP of 3.66. The IC50 in data set [2] worked out at 28.4 µM; in data set [5], 0.066 µM; in data set [3], 17.2 µM; in data set [4], 24.7 µM.

In data set [1], `CN1CCN(CCC(=O)Nc2cc(C(C)(C)C)on2)CC1` registered a logP of 1.86. Further, the IC50 in data set [2] was over 100 µM; in data set [3], 74.6 µM; in data set [4] it was over 100 µM.

In data set [1], `CC(C)(C)c1cc(NC2=NC(=O)/C(=C\c3ccc4ccccc4c3)S2)no1` came in with a logP of 5.89. Moreover, the values for the IC50 in data set [2], in data set [3] and in data set [4] were 79.2 µM, 67.6 µM and 94.2 µM, respectively.

Consider `Cc1cc(NC(=O)CN2CCN(Cc3ccccc3)CC2)no1`, for which the log partition coefficient (logP) in data set [1] came to 1.63. Further, the IC50 in data set [2] was found to be 50.3 µM; in data set [3], 44.8 µM; in data set [4] it was 73.2 µM.

For `CC(C)(C)c1cc(N2C(=O)c3c(Br)c(Br)c(Br)c(Br)c3C2=O)no1`, the IC50 in data set [2] was 90.4 µM; in data set [3] it was 64.9 µM; in data set [4] it was over 100 µM.

Take `CC(C)(C)c1cc(NC2=NC(=O)/C(=C\c3ccc(Cl)c(Cl)c3)S2)no1`: the figures for the IC50 in data set [2], in data set [3] and in data set [4] were 43.8 µM, 32.5 µM and 62.8 µM, respectively.

`CC(C)(C)c1cc(NC(=O)CN2CCOCC2)no1` registered a log partition coefficient (logP) in data set [1] of 1.91. Besides, the IC50 in data set [2] amounted to 25 µM; in data set [5] it was 0.144 µM; in data set [3], 19.6 µM; in data set [4] it was 28 µM.

For the compound `Cc1cc(NC(=O)CCN2CCOCC2)no1`, the IC50 was found to be 71.5 µM in data set [2], 51.9 µM in data set [3] and 89.6 µM in data set [4].

In turn, `Cc1ccc(/C=C2/SC(Nc3cc(C)on3)=NC2=O)cc1` came in with a logP in data set [1] of 3.43. Further, the IC50 in data set [2], in data set [3] and in data set [4] was over 100 µM each time.

Turning to `Cc1cc(NC2=NC(=O)/C(=C\c3ccc4ccccc4c3)S2)no1`, the log partition coefficient (logP) in data set [1] turned out to be 4.16. Moreover, the concentration for half-maximal inhibition (IC50) in data set [2], in data set [3] and in data set [4] was over 100 µM in each case.

Regarding `CC(C)(C)c1cc(NC(=O)CCN2CCN(c3ccccc3)CC2)no1`, in data set [1], the log partition coefficient (logP) was 3.56. In addition, the figures for the IC50 in data set [2], in data set [3] and in data set [4] were 37.1 µM, 23 µM and 33.6 µM, respectively.

`CC(C)(C)c1cc(NC2=NC(=O)/C(=C\c3ccco3)S2)no1`: the values for the IC50 in data set [2], in data set [3] and in data set [4] were 68.2 µM, 42.9 µM and 66.7 µM, respectively.

Take `CC(C)(C)c1cc(NC(=O)CCN2CCN(Cc3ccccc3)CC2)no1`: the lipophilicity (logP) in data set [1] stood at 3.26. Further, the values for the IC50 in data set [2], in data set [3] and in data set [4] were 83 µM, 55.4 µM and 85.2 µM, respectively.

On to `Cc1cc(NC2=NC(=O)/C(=C\c3ccc(Br)cc3)S2)no1`, for which the log partition coefficient (logP) in data set [1] was found to be 3.79. For the same compound, the half-maximal inhibitory concentration (IC50) is 87.8 µM in data set [2], 68.7 µM in data set [3] and 95 µM in data set [4].

For `Cc1cc(NC(=O)CN2CCN(c3ccccc3)CC2)no1`, the logP in data set [1] is 1.93. The IC50 was 35 µM in data set [2], 0.064 µM in data set [5], 16.7 µM in data set [3] and 26.2 µM in data set [4].

In data set [1], `Cc1cc(NC(=O)CN2CCOCC2)no1` returned a logP of 0.19. In addition, the IC50 is over 100 µM in data set [2], 81.8 µM in data set [3] and over 100 µM in data set [4].

Regarding `Cc1cc(N2C(=O)c3c(Cl)c(Cl)c(Cl)c(Cl)c3C2=O)no1`, the IC50 in data set [2], in data set [3] and in data set [4] was over 100 µM throughout.

In the case of `Cc1cc(NC2=NC(=O)/C(=C\c3ccc(Cl)c(Cl)c3)S2)no1`, the IC50 came out at 45.2 µM in data set [2], 37.7 µM in data set [3] and 40.6 µM in data set [4].

These data come from ChEMBL document CHEMBL4665865, “New series of isoxazole derivatives targeting EGFR-TK: Synthesis, molecular modeling and antitumor evaluation” (Bioorg Med Chem, 2020).
